Assay results from patent publication US11046694B2, “Compounds and methods for treating bacterial infections” (Entasis Therapeutics, Inc., priority 2018, dated 2021).
≈ marks a conversion by molar mass, not a printed value. Where a name gives a salt, the structure may show the parent alone.

What was measured:
P. aeruginosa PBP1a = P. aeruginosa PBP1a (Pseudomonas aeruginosa, UniProt Q07806); format: biochemical; conditions: P. aeruginosa PBP1a 60 nM, BOCILLIN FL 30 nM, pH 7.0
P. aeruginosa PBP3 = P. aeruginosa PBP3 (Pseudomonas aeruginosa, UniProt G3XD46); format: biochemical; conditions: P. aeruginosa PBP3 60 nM, BOCILLIN FL 30 nM, pH 7.0
P. aeruginosa PBP3, sequence (G3XD46 whole entry): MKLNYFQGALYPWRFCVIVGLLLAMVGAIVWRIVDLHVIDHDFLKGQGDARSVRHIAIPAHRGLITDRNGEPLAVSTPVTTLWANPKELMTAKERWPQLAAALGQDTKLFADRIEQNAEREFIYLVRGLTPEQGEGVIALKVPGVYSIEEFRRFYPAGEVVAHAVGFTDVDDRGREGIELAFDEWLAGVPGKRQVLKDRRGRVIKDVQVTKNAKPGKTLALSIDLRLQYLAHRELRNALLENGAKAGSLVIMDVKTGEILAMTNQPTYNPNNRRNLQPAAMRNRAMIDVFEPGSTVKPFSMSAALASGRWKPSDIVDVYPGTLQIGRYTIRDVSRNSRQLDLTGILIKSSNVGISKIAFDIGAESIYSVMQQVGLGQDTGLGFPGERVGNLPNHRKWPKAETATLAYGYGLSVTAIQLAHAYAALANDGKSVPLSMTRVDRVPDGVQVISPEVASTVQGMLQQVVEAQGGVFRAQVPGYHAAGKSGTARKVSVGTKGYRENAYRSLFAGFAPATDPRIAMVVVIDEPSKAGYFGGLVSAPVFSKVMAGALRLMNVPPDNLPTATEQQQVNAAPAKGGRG

P. aeruginosa WT (PAO1) = test: MIC, CLSI broth microdilution, P. aeruginosa; format: cell-based; conditions: Pseudomonas aeruginosa, PAO1; CLSI broth microdilution; read-out: P. aeruginosa WT (PAO1) MIC
E. coli (ATCC25922) = test: MIC against E. coli; conditions: Escherichia coli, ATCC25922, read-out: E. coli MIC (ATCC25922) (mg/L)
A. baumannii (ARC3495) = test: MIC against A. baumannii; conditions: Acinetobacter baumannii, read-out: A. baumannii MIC (ARC3495) (mg/L)
[1] = tested on: K. pneumoniae (ATCC700603); test: MIC against K. pneumoniae; conditions: Klebsiella pneumoniae, ATCC700603, read-out: K. pneumoniae MIC (ATCC700603)

P. aeruginosa PBP1a, sequence (Q07806 whole entry): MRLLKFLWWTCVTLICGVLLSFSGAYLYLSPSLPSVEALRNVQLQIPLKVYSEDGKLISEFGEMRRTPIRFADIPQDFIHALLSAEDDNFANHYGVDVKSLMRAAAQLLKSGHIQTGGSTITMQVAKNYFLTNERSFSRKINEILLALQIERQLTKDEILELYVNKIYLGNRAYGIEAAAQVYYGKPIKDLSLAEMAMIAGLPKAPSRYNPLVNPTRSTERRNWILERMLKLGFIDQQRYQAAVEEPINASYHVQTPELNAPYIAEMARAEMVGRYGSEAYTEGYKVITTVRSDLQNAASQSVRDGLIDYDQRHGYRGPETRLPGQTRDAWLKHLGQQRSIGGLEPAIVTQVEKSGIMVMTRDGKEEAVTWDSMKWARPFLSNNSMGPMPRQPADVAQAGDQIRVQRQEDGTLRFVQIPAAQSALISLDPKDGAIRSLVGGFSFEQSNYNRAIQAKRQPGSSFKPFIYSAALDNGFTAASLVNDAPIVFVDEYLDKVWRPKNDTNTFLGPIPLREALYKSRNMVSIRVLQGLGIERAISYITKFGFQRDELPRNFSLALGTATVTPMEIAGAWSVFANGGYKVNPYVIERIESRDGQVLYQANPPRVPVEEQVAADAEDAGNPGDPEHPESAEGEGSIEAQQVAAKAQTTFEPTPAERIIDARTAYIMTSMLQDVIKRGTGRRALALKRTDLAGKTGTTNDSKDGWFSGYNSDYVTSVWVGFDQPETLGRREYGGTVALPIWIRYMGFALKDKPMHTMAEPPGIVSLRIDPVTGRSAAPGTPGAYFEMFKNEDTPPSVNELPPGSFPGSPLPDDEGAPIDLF

SMILES	PBP1a acylation rate, k(on) (M^−1 · s^−1) (P. aeruginosa PBP1a)	PBP3 acylation rate, k(on) (M^−1 · s^−1) (P. aeruginosa PBP3)	MIC (P. aeruginosa WT (PAO1))	MIC (E. coli (ATCC25922))	MIC (A. baumannii (ARC3495))	MIC [1]
CN/C(=N\OC(=O)NCc1cn(C)[n+](C)c1)[C@@H]1c2c(cnn2C)[C@@H]2CN1C(=O)N2OS(=O)(=O)O [Example 54, 1,2-dimethyl-4-((Z)-3-((4R,8S)-1-methyl-6-oxo-5-(sulfooxy)-4,5,6,8-tetrahydro-1H-4,7-methanopyrazolo[3,4-e][1,3]diazepin-8-yl)-6-oxo-5-oxa-2,4,7-triazaoct-3-en-8-yl)-1H-pyrazol-2-ium]	* (* represents a k(on) < 100 M^−1 · s^−1)	*** (*** represents a k(on) > 10,000 M^−1 · s^−1)	8 to 16 µg/mL	< 8 mg/L	> 16 mg/L	> 16 µg/mL
CN1C(=O)CON=C1[C@@H]1c2c(cnn2C)[C@@H]2CN1C(=O)N2OS(=O)(=O)O [Example 64, ((4R,8S)-1-methyl-8-(4-methyl-5-oxo-5,6-dihydro-4H-1,2,4-oxadiazin-3-yl)-6-oxo-4,8-dihydro-1H-4,7-methanopyrazolo[3,4-e][1,3]diazepin-5(6H)-yl) hydrogen sulfate]	** (** represents a k(on) of 100 to 10,000 M^−1 · s^−1)	** (** represents a k(on) of 100 to 10,000 M^−1 · s^−1)	> 16 µg/mL	< 8 mg/L	> 16 mg/L	> 16 µg/mL
CN/C(=N\OC(=O)NCCCCN)[C@@H]1c2c(cnn2C)[C@@H]2CN1C(=O)N2OS(=O)(=O)O (racemic) [Example 19]	** (** represents a k(on) of 100 to 10,000 M^−1 · s^−1)	*** (*** represents a k(on) > 10,000 M^−1 · s^−1)	< 8 µg/mL	8 to 16 mg/L (≈ 17.4 to 34.7 µM)	8 to 16 mg/L (≈ 17.4 to 34.7 µM)	> 16 µg/mL
CN/C(=N\OC(=O)N[C@H]1CC[C@H](N)CC1)[C@@H]1c2c(cnn2C)[C@@H]2CN1C(=O)N2OS(=O)(=O)O (racemic) [Example 30]	** (** represents a k(on) of 100 to 10,000 M^−1 · s^−1)	*** (*** represents a k(on) > 10,000 M^−1 · s^−1)	< 8 µg/mL	8 to 16 mg/L (≈ 16.4 to 32.9 µM)	8 to 16 mg/L (≈ 16.4 to 32.9 µM)	> 16 µg/mL
CN(C(N)=O)/C(=N\OC(=O)NCCNC(N)=O)[C@@H]1c2c(cnn2C)[C@@H]2CN1C(=O)N2OS(=O)(=O)O [Example 43, (4R,8S)-8-((Z)—N-carbamoyl-N-methyl-N′-(((2-ureidoethyl)carbamoyl)oxy)carbamimidoyl)-1-methyl-6-oxo-4,8-dihydro-1H-4,7-methanopyrazolo[3,4-e][1,3]diazepin-5(6H)-yl hydrogen sulfate]	** (** represents a k(on) of 100 to 10,000 M^−1 · s^−1)	*** (*** represents a k(on) > 10,000 M^−1 · s^−1)	> 16 µg/mL	< 8 mg/L	> 16 mg/L	> 16 µg/mL
CN/C(=N\OC(=O)NCCNC(C)=O)[C@@H]1c2c(cnn2C)[C@@H]2CN1C(=O)N2OS(=O)(=O)O [Example 44, (4R,8S)-8-((Z)—N′-(((2-acetamidoethyl)carbamoyl)oxy)-N-methylcarbamimidoyl)-1-methyl-6-oxo-4,8-dihydro-1H-4,7-methanopyrazolo[3,4-e][1,3]diazepin-5(6H)-yl hydrogen sulfate]	** (** represents a k(on) of 100 to 10,000 M^−1 · s^−1)	*** (*** represents a k(on) > 10,000 M^−1 · s^−1)	> 16 µg/mL	8 to 16 mg/L	> 16 mg/L	> 16 µg/mL
CN/C(=N\OCC(=O)NCCCCN)[C@@H]1c2c(cnn2C)[C@@H]2CN1C(=O)N2OS(=O)(=O)O (racemic) [Example 59]	** (** represents a k(on) of 100 to 10,000 M^−1 · s^−1)	*** (*** represents a k(on) > 10,000 M^−1 · s^−1)	< 8 µg/mL	8 to 16 mg/L (≈ 16.9 to 33.7 µM)	8 to 16 mg/L (≈ 16.9 to 33.7 µM)	> 16 µg/mL
